Test results published in EP0931077B1, “SUBSTITUTED BENZOCYCLOHEPTAPYRIDINE USEFUL AS INHIBITORS OF FARNESYL-PROTEIN TRANSFERASE” (SCHERING CORPORATION, priority 1996, dated 1998).

Target: farnesyl-protein transferase (Homo sapiens, UniProt P49354+P49356)
Assay: FPT inhibition (in vitro farnesyl protein transferase inhibition)
Format: biochemical

Row | Compound | IC50 | further results
1 | O=C(NCc1cccnc1)[C@@H]1CCCN1C1c2ccc(Cl)cc2CCc2cc(Br)cnc21 (single isomer, unassigned) [Example 1 Isomer A, 1-(3-Brorno-8-chloro-6,11-dihydro-5H-benzo[5,6]cyclohepta[1,2-b]pyridine-11-yl)-N-(3-pyridinylmethyl)2-pyrrolidine carboxamide] | 59 nM | 
2 | O=C(NCc1cccnc1)[C@@H]1CCCN1C1c2ccc(Cl)cc2CCc2cc(Br)cnc21 (single isomer, unassigned) [Example 1 Isomer B, 1-(3-Brorno-8-chloro-6,11-dihydro-5H-benzo[5,6]cyclohepta[1,2-b]pyridine-11-yl)-N-(3-pyridinylmethyl)2-pyrrolidine carboxamide] | 140 nM | 
3 | O=C(NCc1cccnc1)C1CCCN1C1c2ncc(Br)cc2CCc2cc(Cl)cc(Br)c21 (single isomer, unassigned) [Example 2 Isomer A, 1-(3,10-dibromo-8-chloro-6,11-dihydro-5H-benzo[5,6]cyclohepta[1,2-b]pyridine-11-yl)-N-(3-pyridinylmethyl)-2-pyrrolidine carboxamide] |  | inhibition at 0.3 µM (@ 0.3 µM): 15%
4 | O=C(NCc1cccnc1)C1CCCN1C1c2ncc(Br)cc2CCc2cc(Cl)cc(Br)c21 (single isomer, unassigned) [Example 2 Isomer B, 1-(3,10-dibromo-8-chloro-6,11-dihydro-5H-benzo[5,6]cyclohepta[1,2-b]pyridine-11-yl)-N-(3-pyridinylmethyl)-2-pyrrolidine carboxamide] | 5.2 nM | 
5 | O=C(NCc1cccnc1)C1CCN1C1c2ccc(Cl)cc2CCc2cc(Br)cnc21 (single isomer, unassigned) [Example 3 Isomer A, 1-(3-bromo-8-chloro-6,11-dihydro-5H-benzo[5,6]cyclohepta[1,2-b]pyridine-11-yl)-N-(3-pyridinylmethyl)2-azetidine carboxamide] | 1050 nM | 
6 | O=C(NCc1cccnc1)C1CCN1C1c2ccc(Cl)cc2CCc2cc(Br)cnc21 (single isomer, unassigned) [Example 3 Isomer B, 1-(3-bromo-8-chloro-6,11-dihydro-5H-benzo[5,6]cyclohepta[1,2-b]pyridine-11-yl)-N-(3-pyridinylmethyl)2-azetidine carboxamide] |  | inhibition at 0.1 µM (@0.1 µM): 17%
